Data: patent US20200392158A1, “INHIBITORS OF LEUCINE RICH REPEAT KINASE 2” (GLAXOSMITHKLINE INTELLECTUAL PROPERTY DEVELOPMENT LIMITED, priority 2017, published 2020)

Tests used:
[1] = biological target: T1, LRRK2 kinase in SH-SY5Y cells over-expressing recombinant full length LRRK2 (Homo sapiens, UniProt Q5S007); test: Recombinant cellular LRRK2 AlphaScreen assay (LRRK2 Ser935 phosphorylation); assay type: cell-based; conditions: 60 min
T1 construct: A BacMam virus expressing full length recombinant LRRK2 was purchased from Invitrogen; host or cells: SH-SY5Y human neuroblastoma cells transduced with BacMam LRRK2 virus
Procedure, shortened: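 Read-out is AlphaScreen of LRRK2 pSer935 over total LRRK2 in lysates of SH-SY5Y cells over-expressing full-length LRRK2 via BacMam (24 h transduction). Cells were exposed 60 min at 37 °C to an 11-point 1-in-4 dilution series starting at 10 uM; sigmoidal fit.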

human hepatocytes = test: Metabolic stability assay in hepatocytes; assay type: in vitro ADME; conditions: 0.5 μM test compound, intrinsic clearance
Method: c. Metabolic Stability Assay
Metabolic stability of compounds of the invention was evaluated in hepatocytes from human and preclinical species (e.g. rat). A test compound (0.5 μM) was incubated with 0.5 million viable hepatocytes at 37° C. in a 95% humidified incubator supplied with 5% CO2. 7-ethoxycoumarin was used as positive control and was treated in the same manner as the test compound. The incubation samples were gently mixed at 150 rpm. Incubation medium was Williams' Medium E containing 2 mM GlutaMAX™ and 25 mM HEPES. Samples were removed from incubation at a specified time interval (tx): 0, 15, 30, 60, 90 and 120 min. Reactions were terminated by adding equal volume of ice-cold acetonitrile/methanol/acetic acid (80/20/1, v/v/v) containing an internal standard (e.g. 100 ng/mL to butamide as internal standard). […] The instrument responses of the test compound and the internal standard were measured using a compound specific LC/MS/MS methodology. The percentage of remaining test compound is calculated from the peak area ratio between the remaining test compound after incubation (tx) and the test compound peak area at the beginning of incubation (tx=0 min).
The half-life (t1/2) is calculated using the following equation: […]
Metabolic stability of a test compound is expressed as Intrinsic Clearance (Clint) and is calculated from the half-life (t1/2) using the following equation: […]

[2] = biological target: T2, full length G2019 human LRRK2 (Homo sapiens, UniProt Q5S007, R50H); test: Full length G2019 human LRRK2 inhibition mass spectrometry assay; assay type: biochemical; conditions: LRRKtide to phospho-LRRKtide conversion, RapidFire MS, 2 mM ATP
T2 construct: made in house; host or cells: HEK293 6E cells transduced with BacMam virus (virus generated in Sf9 cells)
Procedure, shortened: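 Inhibition taken as reduced LRRKtide phosphorylation, quantified by RapidFire-coupled triple-quadrupole MS as product/(product+substrate) peak area. Reaction: 2 mM ATP, 25 μM peptide, ~25 nM full-length G2019 Flag-LRRK2, Hepes pH 7.2 buffer, room temperature for 1 h. 11-point 1-in-4 dilutions from 100 μM; logistic fit gives IC50, reported as pIC50.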

T1 sequence (Q5S007 whole entry): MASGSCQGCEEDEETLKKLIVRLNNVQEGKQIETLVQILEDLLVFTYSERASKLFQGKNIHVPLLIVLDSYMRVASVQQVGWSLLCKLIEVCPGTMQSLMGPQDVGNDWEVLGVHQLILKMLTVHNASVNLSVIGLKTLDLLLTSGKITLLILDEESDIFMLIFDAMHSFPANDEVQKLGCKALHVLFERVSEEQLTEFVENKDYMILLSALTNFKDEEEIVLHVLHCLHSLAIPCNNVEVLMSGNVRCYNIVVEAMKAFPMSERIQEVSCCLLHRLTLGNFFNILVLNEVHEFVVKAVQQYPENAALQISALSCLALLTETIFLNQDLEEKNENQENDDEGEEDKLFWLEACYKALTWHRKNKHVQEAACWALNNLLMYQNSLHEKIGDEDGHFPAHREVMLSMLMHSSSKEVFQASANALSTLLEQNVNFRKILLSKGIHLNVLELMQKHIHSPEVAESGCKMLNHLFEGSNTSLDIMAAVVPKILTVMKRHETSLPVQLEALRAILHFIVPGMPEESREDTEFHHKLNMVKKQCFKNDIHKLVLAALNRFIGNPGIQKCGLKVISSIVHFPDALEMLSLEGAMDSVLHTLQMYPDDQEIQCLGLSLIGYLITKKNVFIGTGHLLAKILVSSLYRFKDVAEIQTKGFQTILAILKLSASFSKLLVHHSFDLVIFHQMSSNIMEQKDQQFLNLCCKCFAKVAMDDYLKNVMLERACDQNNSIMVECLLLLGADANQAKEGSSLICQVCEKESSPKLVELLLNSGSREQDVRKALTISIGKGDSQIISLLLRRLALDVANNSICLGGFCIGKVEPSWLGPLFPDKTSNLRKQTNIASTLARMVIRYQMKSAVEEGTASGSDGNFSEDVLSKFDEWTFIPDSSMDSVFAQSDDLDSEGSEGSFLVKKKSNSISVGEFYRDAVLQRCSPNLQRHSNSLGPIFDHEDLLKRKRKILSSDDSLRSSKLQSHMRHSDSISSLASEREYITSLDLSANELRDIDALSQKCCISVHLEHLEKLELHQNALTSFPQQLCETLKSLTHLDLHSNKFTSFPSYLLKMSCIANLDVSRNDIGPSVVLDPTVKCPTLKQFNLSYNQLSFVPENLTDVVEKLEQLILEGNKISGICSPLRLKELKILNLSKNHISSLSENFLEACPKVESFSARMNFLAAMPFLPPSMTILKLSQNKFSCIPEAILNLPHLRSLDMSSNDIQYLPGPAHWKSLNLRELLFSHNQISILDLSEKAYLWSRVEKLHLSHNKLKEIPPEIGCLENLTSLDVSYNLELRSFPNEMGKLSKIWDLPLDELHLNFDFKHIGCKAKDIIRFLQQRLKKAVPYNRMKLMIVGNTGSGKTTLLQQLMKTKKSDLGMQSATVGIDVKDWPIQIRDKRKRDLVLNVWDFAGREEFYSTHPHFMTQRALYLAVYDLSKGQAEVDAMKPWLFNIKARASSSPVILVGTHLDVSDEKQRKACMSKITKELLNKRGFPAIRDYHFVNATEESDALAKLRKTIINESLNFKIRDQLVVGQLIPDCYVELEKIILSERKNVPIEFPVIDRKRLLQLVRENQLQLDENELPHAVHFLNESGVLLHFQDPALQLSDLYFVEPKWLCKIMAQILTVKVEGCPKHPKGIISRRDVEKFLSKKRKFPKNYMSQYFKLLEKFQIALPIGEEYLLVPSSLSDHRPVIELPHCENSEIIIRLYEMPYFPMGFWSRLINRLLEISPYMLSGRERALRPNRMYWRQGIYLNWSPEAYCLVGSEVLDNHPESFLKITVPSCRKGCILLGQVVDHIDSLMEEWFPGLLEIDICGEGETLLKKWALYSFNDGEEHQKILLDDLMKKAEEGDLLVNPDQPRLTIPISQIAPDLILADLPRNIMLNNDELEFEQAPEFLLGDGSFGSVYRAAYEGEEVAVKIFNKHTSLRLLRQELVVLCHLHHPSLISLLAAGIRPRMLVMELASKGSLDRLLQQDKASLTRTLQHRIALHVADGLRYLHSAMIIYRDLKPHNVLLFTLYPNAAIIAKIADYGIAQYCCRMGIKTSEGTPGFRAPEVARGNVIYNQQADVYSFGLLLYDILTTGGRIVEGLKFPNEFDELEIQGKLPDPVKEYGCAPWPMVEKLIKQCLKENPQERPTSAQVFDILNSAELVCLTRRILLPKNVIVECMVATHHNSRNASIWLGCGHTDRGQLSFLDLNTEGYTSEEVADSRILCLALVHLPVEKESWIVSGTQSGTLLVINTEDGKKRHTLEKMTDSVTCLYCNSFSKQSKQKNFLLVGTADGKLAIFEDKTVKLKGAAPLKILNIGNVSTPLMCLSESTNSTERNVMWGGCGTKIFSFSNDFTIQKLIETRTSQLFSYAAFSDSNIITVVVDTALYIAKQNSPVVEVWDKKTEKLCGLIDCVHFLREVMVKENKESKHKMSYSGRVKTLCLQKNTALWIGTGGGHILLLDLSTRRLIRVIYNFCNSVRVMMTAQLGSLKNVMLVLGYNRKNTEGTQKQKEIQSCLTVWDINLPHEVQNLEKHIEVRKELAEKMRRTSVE
T2 sequence (Q5S007 with tags, fused parts or gaps R50H): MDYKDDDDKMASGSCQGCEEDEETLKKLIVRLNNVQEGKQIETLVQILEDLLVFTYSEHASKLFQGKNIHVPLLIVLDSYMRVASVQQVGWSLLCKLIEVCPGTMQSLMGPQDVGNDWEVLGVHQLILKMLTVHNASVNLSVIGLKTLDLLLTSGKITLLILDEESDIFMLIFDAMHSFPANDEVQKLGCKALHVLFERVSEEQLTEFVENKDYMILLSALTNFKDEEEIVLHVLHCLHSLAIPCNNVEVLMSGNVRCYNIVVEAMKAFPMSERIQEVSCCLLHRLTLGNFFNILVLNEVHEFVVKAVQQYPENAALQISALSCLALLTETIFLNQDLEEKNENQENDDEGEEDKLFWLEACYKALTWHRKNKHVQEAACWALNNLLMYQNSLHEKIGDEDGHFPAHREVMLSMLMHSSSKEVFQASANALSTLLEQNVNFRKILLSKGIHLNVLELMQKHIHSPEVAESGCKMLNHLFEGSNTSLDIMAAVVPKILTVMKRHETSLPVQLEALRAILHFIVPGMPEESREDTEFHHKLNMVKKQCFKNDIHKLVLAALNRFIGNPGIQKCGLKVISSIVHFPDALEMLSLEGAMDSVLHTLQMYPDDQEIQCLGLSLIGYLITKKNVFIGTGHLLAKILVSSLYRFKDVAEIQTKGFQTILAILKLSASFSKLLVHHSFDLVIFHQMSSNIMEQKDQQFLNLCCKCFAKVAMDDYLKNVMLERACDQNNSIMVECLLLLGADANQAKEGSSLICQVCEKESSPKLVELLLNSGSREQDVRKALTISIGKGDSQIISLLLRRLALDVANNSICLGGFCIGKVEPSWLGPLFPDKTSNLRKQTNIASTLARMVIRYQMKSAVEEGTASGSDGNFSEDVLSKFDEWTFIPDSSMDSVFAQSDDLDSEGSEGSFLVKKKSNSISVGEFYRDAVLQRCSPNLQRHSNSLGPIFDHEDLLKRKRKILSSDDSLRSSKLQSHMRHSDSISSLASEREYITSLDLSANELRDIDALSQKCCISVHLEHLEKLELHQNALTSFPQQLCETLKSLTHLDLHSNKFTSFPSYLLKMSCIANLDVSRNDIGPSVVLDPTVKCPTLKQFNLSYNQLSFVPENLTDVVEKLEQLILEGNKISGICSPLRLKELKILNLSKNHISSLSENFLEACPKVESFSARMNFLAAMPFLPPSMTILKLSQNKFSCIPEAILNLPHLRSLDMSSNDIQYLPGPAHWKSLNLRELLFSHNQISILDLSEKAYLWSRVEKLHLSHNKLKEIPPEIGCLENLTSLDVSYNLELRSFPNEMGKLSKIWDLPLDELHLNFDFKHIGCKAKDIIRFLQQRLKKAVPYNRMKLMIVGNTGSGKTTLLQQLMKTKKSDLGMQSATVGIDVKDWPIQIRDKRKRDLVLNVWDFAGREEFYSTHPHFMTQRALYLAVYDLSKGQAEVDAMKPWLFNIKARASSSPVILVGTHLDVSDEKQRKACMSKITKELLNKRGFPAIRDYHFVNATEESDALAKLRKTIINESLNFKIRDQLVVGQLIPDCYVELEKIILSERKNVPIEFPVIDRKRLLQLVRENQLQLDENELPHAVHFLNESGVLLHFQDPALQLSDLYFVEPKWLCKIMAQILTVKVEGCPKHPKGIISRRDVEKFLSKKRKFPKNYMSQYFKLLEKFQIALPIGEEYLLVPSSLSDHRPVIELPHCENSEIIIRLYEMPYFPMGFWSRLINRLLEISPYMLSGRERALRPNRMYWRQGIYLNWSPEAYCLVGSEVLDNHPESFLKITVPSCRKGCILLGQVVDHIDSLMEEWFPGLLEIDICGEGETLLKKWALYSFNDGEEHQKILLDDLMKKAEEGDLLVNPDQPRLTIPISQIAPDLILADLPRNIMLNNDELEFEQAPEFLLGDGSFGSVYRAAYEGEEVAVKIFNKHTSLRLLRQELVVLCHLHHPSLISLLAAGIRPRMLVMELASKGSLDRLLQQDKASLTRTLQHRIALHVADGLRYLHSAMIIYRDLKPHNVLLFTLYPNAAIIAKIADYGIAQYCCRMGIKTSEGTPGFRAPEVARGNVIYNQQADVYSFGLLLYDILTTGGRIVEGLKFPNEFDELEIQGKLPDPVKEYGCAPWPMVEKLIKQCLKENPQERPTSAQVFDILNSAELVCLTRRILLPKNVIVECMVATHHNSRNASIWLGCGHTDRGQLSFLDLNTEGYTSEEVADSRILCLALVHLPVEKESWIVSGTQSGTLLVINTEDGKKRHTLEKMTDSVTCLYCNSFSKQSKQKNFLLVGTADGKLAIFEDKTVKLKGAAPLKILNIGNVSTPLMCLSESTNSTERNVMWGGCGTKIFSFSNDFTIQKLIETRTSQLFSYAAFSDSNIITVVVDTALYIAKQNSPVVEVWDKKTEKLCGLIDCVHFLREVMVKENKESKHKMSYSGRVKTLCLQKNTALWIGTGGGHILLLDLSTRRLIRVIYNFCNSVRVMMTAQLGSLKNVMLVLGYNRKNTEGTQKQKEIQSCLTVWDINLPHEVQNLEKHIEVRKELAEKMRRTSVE

Structure (SMILES)	IC50 [1]	Clint (human) (human hepatocytes)	IC50 [2]
Cc1c2c(nn1C(=O)C1CC1)OCCCNc1nc(ncc1Cl)N2 [E362, 14-Chloro-5-cyclopropanecarbonyl-4-methyl-8-oxa-2,5,6,12,16, 17-hexaazatricyclo[11.3.1.0^3,7]heptadeca-1(16),3,6,13(17),14-pentaene]	≤ 100 nM	> 10 mL/min/g	
Cc1c2c(nn1C1CC(F)CN(C3COC3)C1)OCC[C@@H](C)Nc1nc(ncc1Cl)N2 (stereo partly drawn) [E410, (11R)-14-Chloro-5-[5-fluoro-1-(oxetan-3-yl)piperidin-3-yl]-4,11-dimethyl-8-oxa-2,5,6,12,16,17 hexaazatricyclo[11.3.1.0^3,7] heptadeca-1(16),3,6,13(17),14-pentaene]	≤ 100 nM		≤ 100 nM
Cc1c2c(nn1C1CCN(C3COC3)CC1(F)F)OCC[C@@H](C)Nc1nc(ncc1Cl)N2 (stereo partly drawn) [E411, (11R)-14-Chloro-5-[3,3-difluoro-1-(oxetan-3-yl)piperidin-4-yl]-4,11-dimethyl-8-oxa-2,5,6,12,16,17-hexaazatricyclo[11.3.1. 0^3,7]heptadeca-1(16),3,6,13(17),14-pentaene]	≤ 100 nM		≤ 100 nM
C[C@@H]1CCOc2nn(C3CCOCC3)c(C(F)(F)F)c2Nc2ncc(Cl)c(n2)N1 [E416, (11R)-14-Chloro-11-methyl-5-(oxan-4-yl)-4-(trifluoromethyl)-8-oxa-2,5,6,12,16,17-hexaazatricyclo[11.3.1.0^3,7]heptadeca-1(16),3,6,13(17),14-pentaene]	≤ 100 nM		≤ 100 nM
Cc1c2c(nn1C(C)(C)C)OCC[C@@H](C)Nc1nc(ncc1Cl)N2 [E417, (11R)-5-tert-Butyl-14-chloro-4,11-dimethyl-8-oxa-2,5,6,12,16,17-hexaazatricyclo[11.3.1.0^3,7]heptadeca-1(16),3,6,13(17),14-pentaene]	≤ 100 nM		≤ 100 nM
Cc1c2c(nn1C1CCOCC1(C)C)OCC[C@@H](C)Nc1nc(ncc1Cl)N2 (stereo partly drawn) [E421, (11R)-14-Chloro-5-(3,3-dimethyloxan-4-yl)-4,11-dimethyl-8-oxa-2,5,6,12,16,17-hexaazatricyclo[11.3.1.0^3,7]heptadeca-1(16),3,6,13(17),14-pentaene]	≤ 100 nM		≤ 100 nM
C[C@@H]1CCOc2nn(C3CN(C4COC4)C3)c(Cl)c2Nc2ncc(Cl)c(n2)N1 [E427, (11R)-4,14-Dichloro-11-methyl-5-[1-(oxetan-3-yl)azetidin-3-yl]-8-oxa-2,5,6,12,16,17-hexaazatricyclo[11.3.1.0^3,7]heptadeca-1(16),3,6,13(17),14-pentaene]	≤ 100 nM		≤ 100 nM

Continued, values first:

IC50 [1]	Clint (human) (human hepatocytes)	IC50 [2]	Structure (SMILES)
> 10000 nM		≤ 10000 nM	Cc1c2c(nn1C1CCOCC1)OCCCNc1nc(ncc1C(C)C)N2 [E428, 4-Methyl-5-(oxan-4-yl)-14-(propan-2-yl)-8-oxa-2,5,6,12,16,17-hexaazatricyclo[11.3.1.0^3,7]heptadeca-1(16),3,6,13(17),14-pentaene]
> 10000 nM		≤ 10000 nM	C=C(C)c1cnc2nc1NCCCOc1nn(C3CCOCC3)c(C)c1N2 [E429, 4-Methyl-5-(oxan-4-yl)-14-(prop-1-en-2-yl)-8-oxa-2,5,6,12,16,17-hexaazatricyclo[11.3.1.0^3,7]heptadeca-1(16),3,6,13(17),14-pentaene]
≤ 100 nM		≤ 100 nM	CCc1[nH]nc2c1Nc1ncc(Cl)c(n1)N[C@H](C)CCO2 [E430, (11R)-14-Chloro-4-ethyl-11-methyl-8-oxa-2,5,6,12,16,17-hexaazatricyclo[11.3.1.0^3,7]heptadeca-1(16),3,6,13(17),14-entaene]
≤ 100 nM		≤ 100 nM	Cc1[nH]nc2c1Nc1ncc(Br)c(n1)NCCCO2 [E432, 14-Bromo-4-methyl-8-oxa-2,5,6,12,16,17-hexaazatricyclo[11.3.1.0^3,7]heptadeca-1(16),3,6,13(17),14-pentaene]
≤ 100 nM		≤ 100 nM	Cc1[nH]nc2c1Nc1ncc(C(F)(F)F)c(n1)NCCCO2 [E433, 4-Methyl-14-(trifluoromethyl)-8-oxa-2,5,6,12,16,17-hexaazatricyclo[11.3.1.0^3,7]heptadeca-1(16),3,6,13(17),14-pentaene]
≤ 100 nM		≤ 100 nM	FC1(F)CN(C2COC2)CCC1n1nc2c(c1Cl)Nc1ncc(Cl)c(n1)NCCCO2 (centres unmarked) [E446, 4,14-Dichloro-5[3,3-difluoro-1-(oxetan-3-yl)piperidin-4-yl]-8-oxa-2,5,6,12,16,17-hexaazatricyclo[11.3.1.0^3,7]heptadeca-1(16),3,6,13(17),14-pentaene]
